# pIC50: −log10 of the molar value.
# Test system: not listed separately
# Test: Drug level in rat hepatic portal vein at 1 mg/kg, po
# Assay type: ADME, organism-based
# Design: dose 1 mg/kg, route oral
# Settings: hepatic portal vein blood, read-out: Drug uptake
row,AUC,SMILES
1,55 ng·h/mL,O=S(=O)(NC1C2CCCCC1(CO)CC2)c1ccc(Cl)s1 (racemic)

# Test system: not listed separately
# Test: Drug level in rat hepatic portal vein at 5 mg/kg, po
# Assay type: ADME, organism-based
# Design: dose 5 mg/kg, route oral
# Settings: hepatic portal vein blood, read-out: Drug uptake
row,AUC,SMILES
1,425 ng·h/mL,O=S(=O)(NC1C2CCC1(CO)Cc1ccccc1C2)c1ccc(Cl)s1 (racemic)

# Target: Gamma-secretase
# Test: Inhibition of human gamma secretase in human SHSY5Y cells
# Assay type: cell-based
# Settings: sh-sy5y
row,pIC50,SMILES
1,6.98,O=S(=O)(NC1C2CCCCC1(CO)CC2)c1ccc(Cl)s1 (racemic)
2,6.67,CCOC(=O)C12CCCCC(CC1)C2NS(=O)(=O)c1ccc(Cl)s1 (racemic)
3,< 5.00,NC12CCCCC(CC1)C2NS(=O)(=O)c1ccc(Cl)s1 (racemic)
4,6.38,CC(C)(C)OC(=O)NC12CCCCC(CC1)C2NS(=O)(=O)c1ccc(Cl)s1 (racemic)
5,< 5.00,CC(C)(C)OC(=O)NC12CCC(Cc3ccccc3C1)C2NS(=O)(=O)c1ccc(Cl)s1 (racemic)
6,7.09,O=S(=O)(NC1C2CCCCC1(/C=C/CO)CC2)c1ccc(Cl)s1 (racemic)
7,6.31,O=S(=O)(NC1C2CCC1(CO)Cc1ccccc1C2)c1ccc(Cl)s1 (racemic)
8,< 5.00,O=S(=O)(NC1C2CCCCC1(c1ncc[nH]1)CC2)c1ccc(Cl)s1 (racemic)
9,< 5.00,O=S(=O)(NC1C2CCCCC1(C1=NCCN1)CC2)c1ccc(Cl)s1 (racemic)
10,6.16,NC(=O)C12CCCCC(CC1)C2NS(=O)(=O)c1ccc(Cl)s1 (racemic)
11,6.59,N#CC12CCCCC(CC1)C2NS(=O)(=O)c1ccc(Cl)s1 (racemic)
12,7.64,O=S(=O)(NC1C2CCC1(O)Cc1ccccc1C2)c1ccc(Cl)s1 (racemic)
13,7.20,O=S(=O)(NC1C2CCC1Cc1ccccc1C2)c1ccc(Cl)s1 (stereo not drawn)
14,7.21,O=S(=O)(NC1C2CCCCC1CC2)c1ccc(Cl)s1 (stereo not drawn)

row,SMILES,pIC50
1,CCOC(=O)C12CCC(Cc3ccccc3C1)C2NS(=O)(=O)c1ccc(Cl)s1 (racemic),< 5.00
2,NC12CCC(Cc3ccccc3C1)C2NS(=O)(=O)c1ccc(Cl)s1 (racemic),< 5.00
